Where “and” joins values, the source holds several entries; their conditions need not be identical. Equal values may be shown once.
Each compound was assayed on 935938-334-R-J1-PDC complex spheroid viability (assay: Anticancer human tumor 935938-334-R-J1-PDC patient-derived small intestine adenocarcinoma cell line growth inhibition [POLQ]). Conditions: compound 0.0316 µM; stronger effect = lower value.
Experimental: Multicellular complex tumor spheroid response to Polymerase (POL) inhibitors (novobiocin, ART-558, RP6685) in combination with a variety of drugs and investigational agents in selected tumor cell lines
The POL inhibitors (novobiocin, ART-558, and RP6685) were evaluated both individually and in combination with standard of care and investigational anticancer small molecules within a complex spheroid model of solid tumors. . Complex spheroids include a stromal component modeled by human endothelial cells (HUVEC) and fibroblasts modeled by human mesenchymal stem cells (MSCs). The concentration ranges selected for each drug and investigational agent were based upon clinically achievable concentrations if the clinical Cmax of the agent was known.
Compounds. The drugs and investigational agents: novobiocin (NSC847541), ART-558 (NSC835418), RP-6685 (NSC848927), peposertib (NSC802822), ceralasertib (NSC780249), elimusertib (NSC800525), camonsertib (NSC841442), AZD-1390 (NSC803789), olaparib (NSC753686), talazoparib (NSC767125), rucaparib (NSC756644), sotorasib (NSC818433), MRTX-1133 (NSC836407), SN-38 (NSC673596), topotecan (NSC609699), epotoside (NSC141540), doxorubicin (NSC123127), gemcitabine (NSC613327), 5-fluorouracil (NSC19893), paclitaxel (NSC125973), vemurafenib (NSC761431), MSA-2 (NSC828583), SN-011 (NSC837082), adavosertib (NSC754352), prexasertib (NSC758257), carboplatin (NSC241240) and oxaliplatin (NSC266046), were obtained from the National Cancer Institute (NCI) Developmental Therapeutics Program Chemical Repository (21). The FDA-approved anticancer drug set is available from the Developmental Therapeutics Program at https://dtp.cancer.gov/organization/dscb/obtaining/. […] The stock solutions were prepared in dimethyl sulfoxide (DMSO, Sigma-Aldrich, St. Louis, MO, cat. D2650), except for the platinum compounds which were prepared in saline (Quality Biological, Gaithersburg, MD, cat. 114-055-101), at 800-fold the tested concentration and stored at -70 degrees C prior to their use. All drugs and investigational agents were tested over a range starting from a high concentration at or near the clinical Cmax and decreasing in half-log increments. If the clinical Cmax for an agent had not been determined, the highest concentration tested was 10 microM, except for SN-38, which was tested at a high concentration of 1 microM.
Cell Culture. All cells were maintained in an incubator at 37 degrees C and 5% CO2 with 95% humidity. The PDC lines were cultured according to standard operating procedures established by the NCI PDMR (https://pdmr.cancer.gov). Table 3 of the manuscript, lists the cell lines along with the number of the three cell types plated to form the mct-spheroids and media for tumor cell growth. After thawing, all PDC lines, except 997537-175-T-J1-PDC and 415267-285-R-J2-PDC, were cultured in Matrigel-coated flasks prepared with a working solution of 1X Ham's F-12 nutrient mix, without supplementation (Thermo Fisher Scientific, cat. 11765054), 100 U/mL penicillin-streptomycin (Thermo Fisher Scientific, cat. 15140122), and 2.5% Matrigel (Corning Inc., Corning, NY, cat. 354248) for the first three passages. The two PDC lines 997537-175-T-J1-PDC and 415267-285-R-J2-PDC were cultured on uncoated flasks. The 857933-349-R-J2-PDC line was cultured in 6C/Colon 1B media containing advanced DMEM/F-12 (Thermo Fisher Scientific, cat. 12634028), 10 mM HEPES (Thermo Fisher Scientific, cat. 15630080), 1X GlutaMAX supplement (Thermo Fisher Scientific, cat. 35050061), 0.1 mg/mL primocin (InvivoGen, San Diego, CA, cat. ant-pm-2), 10% defined fetal bovine serum, heat inactivated (HyClone Laboratories Inc., Logan, UT, cat. SH30070.03HI), 50% L-WRN conditioned media (ATCC, cat. CRL-3276), 1.25 mM N-Acetyl-L-cysteine (Sigma-Aldrich, cat. A9165), 10 mM nicotinamide (Sigma-Aldrich, cat. N0636), 1X B-27 supplement (Thermo Fisher Scientific, cat. 17504044), 1X N-2 supplement (Thermo Fisher Scientific, cat. […]
CCCS(=O)(=O)Nc1ccc(F)c(C(=O)c2c[nH]c3ncc(-c4ccc(Cl)cc4)cc23)c1F was tested, and the viability, T/C was 113% and 92.8% and 116%.
With CC1COCCN1c1cc(-c2ccnn2C)c2ccnc(-c3ccn[nH]3)c2n1 (configuration not stated) the viability, T/C was 82.6% and 80.7% and 109%.
With CCc1cc2c(N3CCc4c(cc(Cn5ccnc5)cc4-c4cn(C)nc4C(F)(F)F)C3=O)cc(C)nc2c(OC)n1 the viability, T/C was 63.3% and 77.3% and 86.5%.

Same assay, conditions: compound 0.1 µM; stronger effect = lower value
For CCCS(=O)(=O)Nc1ccc(F)c(C(=O)c2c[nH]c3ncc(-c4ccc(Cl)cc4)cc23)c1F, the viability, T/C was 119% and 111% and 89.6%.
With CC1COCCN1c1cc(-c2ccnn2C)c2ccnc(-c3ccn[nH]3)c2n1 (configuration not stated) the viability, T/C was 48.1% and 37.2% and 43.2%.
CCc1cc2c(N3CCc4c(cc(Cn5ccnc5)cc4-c4cn(C)nc4C(F)(F)F)C3=O)cc(C)nc2c(OC)n1 was tested, and the viability, T/C was 98.4% and 69.4% and 64.3%.

Same assay, conditions: compound 0.316 µM; stronger effect = lower value
With CCCS(=O)(=O)Nc1ccc(F)c(C(=O)c2c[nH]c3ncc(-c4ccc(Cl)cc4)cc23)c1F the viability, T/C was 115% and 103% and 106%.
In the case of CC1COCCN1c1cc(-c2ccnn2C)c2ccnc(-c3ccn[nH]3)c2n1 (configuration not stated), the viability, T/C is reported as 23.7% and 26.6% and 25.3%.
For CCc1cc2c(N3CCc4c(cc(Cn5ccnc5)cc4-c4cn(C)nc4C(F)(F)F)C3=O)cc(C)nc2c(OC)n1, the viability, T/C was 72.6% and 62.2% and 67.1%.

Same assay, conditions: compound 1 µM; stronger effect = lower value
With CCCS(=O)(=O)Nc1ccc(F)c(C(=O)c2c[nH]c3ncc(-c4ccc(Cl)cc4)cc23)c1F the viability, T/C was 108% and 102% and 121%.
With CC1COCCN1c1cc(-c2ccnn2C)c2ccnc(-c3ccn[nH]3)c2n1 (configuration not stated) the viability, T/C was 19.7% and 18.6% and 15.1%.
With CCc1cc2c(N3CCc4c(cc(Cn5ccnc5)cc4-c4cn(C)nc4C(F)(F)F)C3=O)cc(C)nc2c(OC)n1 the viability, T/C was 65.5% and 59.4% and 67.5%.

Same assay, conditions: compound 3.16 µM; stronger effect = lower value
In the case of CCCS(=O)(=O)Nc1ccc(F)c(C(=O)c2c[nH]c3ncc(-c4ccc(Cl)cc4)cc23)c1F, the viability, T/C is reported as 96.3% and 131% and 129%.
CC1COCCN1c1cc(-c2ccnn2C)c2ccnc(-c3ccn[nH]3)c2n1 (configuration not stated) was tested, and the viability, T/C was 17.2% and 15.3% and 17.5%.
With CCc1cc2c(N3CCc4c(cc(Cn5ccnc5)cc4-c4cn(C)nc4C(F)(F)F)C3=O)cc(C)nc2c(OC)n1 the viability, T/C was 65.5% and 71.2% and 67.9%.

Same assay, conditions: compound 10 µM; stronger effect = lower value
CCCS(=O)(=O)Nc1ccc(F)c(C(=O)c2c[nH]c3ncc(-c4ccc(Cl)cc4)cc23)c1F was tested, and the viability, T/C was 46.3% and 53.5% and 37.2%.
In the case of CC1COCCN1c1cc(-c2ccnn2C)c2ccnc(-c3ccn[nH]3)c2n1 (configuration not stated), the viability, T/C is reported as 19.2% and 18.9% and 18.3%.
For CCc1cc2c(N3CCc4c(cc(Cn5ccnc5)cc4-c4cn(C)nc4C(F)(F)F)C3=O)cc(C)nc2c(OC)n1, the viability, T/C was 57.6% and 57% and 58.1%.

Same assay, conditions: curve of compound
In the case of CCCS(=O)(=O)Nc1ccc(F)c(C(=O)c2c[nH]c3ncc(-c4ccc(Cl)cc4)cc23)c1F, the IC50 is reported as 9270 nM and > 10000 nM and 8230 nM.
CC1COCCN1c1cc(-c2ccnn2C)c2ccnc(-c3ccn[nH]3)c2n1 (configuration not stated) was tested, and the IC50 was 93.9 nM and 73.1 nM and 89.6 nM.
Work on CCc1cc2c(N3CCc4c(cc(Cn5ccnc5)cc4-c4cn(C)nc4C(F)(F)F)C3=O)cc(C)nc2c(OC)n1 yielded an IC50 greater than 10000 nM.

Same assay, conditions: curve of first compound; second compound 0.0316 µM
CCc1c2c(nc3ccc(O)cc13)-c1cc3c(c(=O)n1C2)COC(=O)[C@]3(O)CC + Cc1cccc(N(C)C(=O)C2C(O)CCN2c2nc(C)cc(C(F)(F)F)c2C#N)c1 showed an IC50 of 15.8 nM.

Reference: PubChem BioAssay AID1963829 (Molecular Pharmacology Branch, DTP, NCI, 2024)
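Also: spheroids exposed to drugs for seven days before viability read.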
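For viability, T/C in this document: 100% = DMSO vehicle control wells.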
